Assays:
A2780cis cells = assay: MTT assay, A2780cis cells; type: cell-based; settings: for IC50: 72 h exposure; for Resistance factor RF = IC50(A2780cis)/IC50(A2780wt): 72 h
Description: (§1) Carboplatin, a second‐generation platinum drug commonly used as part of standard first‐line chemotherapy for ovarian carcinoma, was examined as a reference compound due to its clinical relevance. Additionally, the nonmalignant bone marrow stromal cell line HS‐5 was included as a control to assess specificity of the complexes toward cancer cells.
Unloaded BGs (4 × 10^8 EcN or 2 × 10^8 Ec NM522, which is equivalent to the highest tested BG concentration) were tested as controls.
The exponentially growing cells were seeded at a density of 8 × 10^3 cells/well (A2780wt/cis) or 1 × 10^4 cells/well (HS‐5), respectively, into clear flat‐bottom 96‐well plates in triplicates. […] After another 72 h of incubation, the cellular metabolic activity was measured as an indicator of cell viability employing an MTT assay. Hereby, 20 µL of a 5 mg/mL MTT solution was added to each well, respectively. After 3 h of incubation, the medium was discarded, and the formazan crystals formed were dissolved in DMSO for 15 min with gentle shaking. […] The OD at 620 nm was subtracted from the OD at 595 nm. The OD of the medium was subtracted to exclude the unspecific staining caused by FCS‐containing medium. Cells treated with vehicle control (0.1% DMF) only were set at 100% metabolic activity. The IC50 values were calculated with Prism 8.0 (GraphPad Software Inc., Boston, MA, USA) using nonlinear regression. Significance was evaluated via a one sample t‐test performed with Prism 8.0.

[1] = tested on: surface calreticulin on A2780wt cells; assay: Immunofluorescent surface calreticulin staining, A2780wt; type: cell-based; settings: w/o BGs, 25 µM, 24 h
Description: Oxaliplatin, a known metal‐based ICD inducer, was included for comparison.
A2780wt or A2780cis cells were seeded at a density of 1.2 × 10^5 on cover slips and allowed to adhere for 24 h. […] Subsequently, the cells were washed again three times with PBS and they were incubated after adding the secondary antibody (Alexa‐Fluor‐conjugated anti‐rabbit, 1:200), for 45 min at rt. Subsequently, the cells were washed again three times with PBS and they were mounted on slides with mounting medium. After letting them dry overnight, visualization was performed by spinning disk confocal microscopy. […] Acquired images were background subtracted, individual cells were manually segmented, and fluorescence intensity for the calreticulin staining was quantified with a FIJI software. Two repetitions of the experiment were performed, where at least 20 cells per condition were analyzed and the mean intensity of each sample was calculated, respectively.

HS‐5 cells = assay: MTT assay, HS‐5 cells; type: cell-based; settings: 72 h exposure, nonmalignant bone marrow stromal cells
Description: as §1
The exponentially growing cells were seeded at a density of 8 × 10^3 cells/well (A2780wt/cis) or 1 × 10^4 cells/well (HS‐5), respectively, into clear flat‐bottom 96‐well plates in triplicates. Following 24 h of incubation for the adherence of the cells at 37°C in a humidified atmosphere (5% CO2/95% air), the test compounds were added. […] For the evaluation of the cell growth inhibition by the compounds loaded in BGs, the BG suspensions were directly diluted in RPMI 1640 to the desired testing concentration (25 µM). After another 72 h of incubation, the cellular metabolic activity was measured as an indicator of cell viability employing an MTT assay. Hereby, 20 µL of a 5 mg/mL MTT solution was added to each well, respectively. After 3 h of incubation, the medium was discarded, and the formazan crystals formed were dissolved in DMSO for 15 min with gentle shaking. Afterward, the optical density (OD) was measured at 595 and 620 nm, respectively on an EnSpire Multimode Plate Reader (revvity, Waltham, MA, USA). The OD at 620 nm was subtracted from the OD at 595 nm. The OD of the medium was subtracted to exclude the unspecific staining caused by FCS‐containing medium. Cells treated with vehicle control (0.1% DMF) only were set at 100% metabolic activity. The IC50 values were calculated with Prism 8.0 (GraphPad Software Inc., Boston, MA, USA) using nonlinear regression. Significance was evaluated via a one sample t‐test performed with Prism 8.0.

[2] = tested on: caspase‐3 in A2780wt cells; assay: Caspase‐3 activity assay (ApoTox‐Glo), A2780wt; type: cell-based; settings: w/o BGs, 25 µM, 24 h
Description: Furthermore, caspase‐3 activation serves as a primary hallmark of apoptosis. Therefore, we evaluated this induction with a luminescence‐based caspase‐3 activity assay on A2780wt cells.
The caspase‐3 assay was performed to investigate the induction of apoptosis by the compounds. It was performed by employing the commercially available ApoTox‐Glo Triplex Assay (Promega Corporation, Madison, USA), which specifically correlates cell viability and toxicity to apoptosis. In brief, A2780wt and A2780cis cells, respectively, were seeded at a density of 8 × 10^3 cells per well into an opaque‐walled 96‐well plate with solid bottoms. […] After incubation, 20 µL of the provided viability/toxicity reagent was added and incubated for further 30 min on an orbital shaker at 37°C. […] Then, 100 µL of Caspase‐Glo 3/7 reagent was added, gently shaken for 30 s and further incubated for 30 min. The caspase activation was determined via the measurement of the luminescence. Analysis was performed on the BioTek Synergy H1 (Agilent Technologies, Santa Clara, USA).

[3] = Stability in RPMI 1640 cell culture medium (HPLC‐MS); type: physicochemical; settings: RPMI 1640 without FCS, 1 h incubation, extracted ion chromatograms
Description: Additional stability studies in aqueous media and RPMI 1640 (without FCS) were carried out using RP‐HPLC‐MS. For this purpose, 0.5 mM solutions of complexes 1 and 2 were prepared in Milli‐Q water and RPMI 1640. Samples were analyzed by HPLC‐MS immediately after preparation and at selected time points during 24 h of incubation at rt. HPLC‐MS measurements were performed on Agilent 1260 system hyphenated to an MS Single Quad detector from Agilent with ESI (LC‐MSD from Agilent Technologies, Santa Clara, CA, USA). As stationary phase, a Gemini C18 110 Å; 150 × 4.6 mm; 3.0 µm particles (Phenomenex Ltd.; Aschaffenburg, Germany) column was employed and equipped with a 4 × 3 mm guard column of the identical material. The mobile phase flow was set to 0.8 mL/min; and consisted of a mixture of water (solvent A) – MeOH (solvent B) using gradient elution (0 min 5% B; 3 min 5% B; 17 min 98% B; 20 min stop; post time 10 min). The oven temperature was maintained at 30°C and the MS analysis was performed with split flow 1:5 of the eluate in positive ionization mode (capillary voltage 4.5 kV; source temperature 320°C; dry gas 10 L/min; nebulizer gas pressure 30 psi, scan range m/z 50–1500). The injection volume of the sample solution (V sample) was set to 10 µL. Sample degradation was evaluated by integration of the extracted ion chromatograms at the indicated m/z ± 0.5 (based on the monoisotopic peaks).

[4] = Stability in D2O (1H NMR); type: physicochemical; settings: for behaviour in D2O (aquation): rt, up to 24 h
Description: Stability of the complexes 1–4 in CDCl3, CD3OD, CD3CN, DMF‐d7, and D2O was monitored by ^1H NMR spectroscopy at ambient temperature. Solutions of the complexes (approximately 3 mg/mL) were prepared in each solvent, and ¹H NMR spectra were recorded periodically over 24 h.

Row | Compound | IC50 (A2780cis cells) | x‐fold intensity of surface calreticulin compared to untreated cells [1] | IC50 (HS‐5 cells) | x-fold caspase-3 induction compared to untreated cells [2] | concentration remaining in RPMI 1640 [3] | Resistance factor RF = IC50(A2780cis)/IC50(A2780wt) (A2780cis cells) | behaviour in D2O (aquation) [4] | complex that had released its acetates ([4]; within 5 min of dissolution)
1 | CCN1[C]([Pt]([O]C(=O)C(Cl)Cl)([O]C(=O)C(Cl)Cl)[SH](C)(C)=O)N(CC)c2ccccc21 [Compound 3, (SP‐4‐2)‐Bis(dichloroacetato)(1,3‐diethylbenzimidazol‐2‐ylidene)(dimethylsulfoxide)platinum(II)] | 83.1 ± 4.79 µM | 1.50 ± 0.17 x‐fold | > 100 µM | 3.06 ± 1.20 x-fold | – | – | – | –
2 | (SP‐4‐2)‐Diacetatobis(1,3‐diethylbenzimidazol‐2‐ylidene)platinum(II) [Compound 2] | 39.3 ± 2.8 µM | 1.07 ± 0.12 x‐fold | > 50 µM | 0.39 ± 0.13 x-fold | ~7% | 1.0 | fast initial aquation | –
3 | CCN1[C]([Pt]([O]C(C)=O)([O]C(C)=O)[SH](C)(C)=O)N(CC)c2ccccc21 [Compound 1, (SP‐4‐2)‐Diacetato(1,3‐diethylbenzimidazol‐2‐ylidene)(dimethylsulfoxide)platinum(II)] | 36.5 ± 2.85 µM | 1.09 ± 0.00 x‐fold | 64.3 ± 8.2 µM | 2.64 ± 0.32 x-fold | approximately 37% | 1.2 | No significant spectral changes were observed during incubation for 24 h at rt | over 70%
4 | (SP‐4‐2)‐Bis(dichloroacetato)bis(1,3‐diethylbenzimidazol‐2‐ylidene)platinum(II) [Compound 4] | 34.9 ± 1.7 µM | 1.37 ± 0.24 x‐fold | 37 ± 1.36 µM | 1.89 ± 0.03 x-fold | – | 0.9 | – | –

From publication PMC12476087, “Loading of Dicarboxylatoplatinum(II)‐NHC Complexes in Bacterial Ghosts as an Advanced Development in Cancer Therapy” (Archiv Der Pharmazie, 2025)
